Experiment: gradient 5% acetonitrile 3 min, to 50% in 2 min, to 85% in 15 min, held 3 min, 100 µL/min
Details: column: Zorbax Extend-C18 2.1 x 50 mm; eluents: water / acetonitrile, 0.1% formic acid
Summary of the method: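 The mobile phases were water and acetonitrile, each with 0.1% formic acid, pumped at 100 μL/min through a Zorbax Extend-C18 column (2.1 × 50 mm, 1.8 μm). Pure standards were injected as mixtures of ~100 molecules and detected by a quadrupole time-of-flight mass spectrometer in positive and negative ionization mode. Retention time came from computationally picked adduct peaks, each inspected by hand.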

SMILES	RP-LC retention time [s]
CSc1ccc(-c2nc3ccccn3c2NC2CCCCC2)cc1	802
CC(C)CN(Cc1cccnc1)C1CN(S(=O)(=O)c2cccnc2)C1	645
CCN1CCn2cc(S(=O)(=O)NCc3cc(F)cc(F)c3)cc2C1=O	794
COc1ccc(OC)c2sc(N(CCN(C)C)C(=O)c3nc4ccccc4s3)nc12	715
CC(C)NC(=O)C1CCCN(c2nc3ncn(CC(=O)NCc4ccccc4)c(=O)c3s2)C1 (configuration not stated)	672
O=C(CN1CCC(c2nc(-c3cccs3)no2)CC1)NCc1ccc(F)cc1	684
O=C(Nc1nc(-c2ccccc2)c(-c2ccccc2)o1)NC1CCCCC1	1320
COc1ccc(NS(=O)(=O)c2cc(-c3nc(C(C)(C)C)cs3)cs2)cc1Cl	1220
CCSc1nnc(NC(=O)CSc2nccn2-c2ccc(OC)cc2OC)s1	682
O=C(O)CCCCC1SCC2NC(=O)NC21 (configuration not stated)	634
CCOC1CCOC2(CCN(C(=O)c3ccoc3)CC2)C1 (configuration not stated)	686
CCN1C(=O)c2cccnc2Sc2cc(NC(=O)C3CCCC3)ccc21	816
COc1ccccc1-n1cc(-c2ccccc2)c2c(NCCN(C)C)ncnc21	695
CC(C)CN1C(=O)c2cccn2CC1CNC(=O)c1ccco1 (configuration not stated)	672
COC(=O)c1ccc(N2C=C(C(=O)N3CCCC3)S(=O)(=O)c3ccc(Cl)cc32)cc1	842
CCOC(=O)C1=C(CN(C)Cc2ccccc2)NC(=O)NC1c1ccc(OC)cc1 (configuration not stated)	578
Cc1ccc(CN2C(=O)C3(CCOCC3)CC2c2nnnn2C(C)(C)C)cc1 (configuration not stated)	783
CCCN1C(=O)c2[nH]nc(-c3cccc(OC)c3)c2C1c1cccnc1 (configuration not stated)	669
CCc1noc(-c2cnc3nc(C)ccc3c2NCc2ccccc2OC)n1	724

SMILES	RP-LC retention time [s]
Cc1ccc(NC(=O)Cn2nc(N3CCSCC3)c3ccccc3c2=O)cc1	1170
C=CCn1nnc(NCc2ccc(-c3cccc(Cl)c3)o2)n1	1050
C[C@H]1CN(C(=O)c2nn(C)c3ccccc23)C[C@@H]1c1nc(-c2ccncc2)no1	864
Cc1cc(C(=O)Nc2cc(-c3ccco3)nn2CCO)no1	725
COc1ccc(NC(=O)c2ccc(-c3ccc(-c4noc(C)n4)cc3C)cc2)cc1OCCN(C)C	788
CCCS(=O)(=O)N1CC(=O)N(c2cc(Cl)ccc2C)C(C)(C(=O)NC2CCCCC2)C1 (configuration not stated)	982
CCOCCCNC(=O)Nc1c(-c2cccc(C)c2)nc2ccccn12	863
O=C(Nc1ccc(-n2cnc(C(=O)N3CCc4ccccc4C3)c2)nc1)C1CC1	733
COc1cc(C(=O)N2CCC(CC(=O)N3CCOCC3)CC2)cc(OC)c1OC	618
COc1ccc(-c2nc(Nc3cnc(SC)nc3)sc2C)cc1	1050
Cc1ccc2c(c1)N(S(C)(=O)=O)CCC(C(=O)NCc1ccco1)O2 (configuration not stated)	793
COC(=O)c1cc(S(=O)(=O)N2CCCC2C(=O)NC2CCCCCC2)cn1C (configuration not stated)	881
COc1ccc(-c2nnc(NC(=O)c3ccc(S(=O)(=O)N(C)C)cc3)s2)c(OC)c1	808
NC(N)=N/N=C(\c1ccc(Cl)cc1)C1CC1	665
Clc1ccccc1-c1nnc2sc(-c3ccc4ccccc4n3)nn12	1150
CCc1ccc(CNC(=O)Cn2ccc3c(=O)n(CC)c(=O)n(CC)c32)cc1	783
COc1ccc(C(=O)N2C[C@@H](Oc3cccnc3)C[C@H]2C(=O)NC2CC2)c(OC)n1	602
Cc1ccc(N(C)S(=O)(=O)c2cc(-c3cc(C(F)(F)F)on3)sc2C)cc1	1320
